Assay results taken from US20230339952A1, “MACROCYCLIC HETEROCYCLES AND USES THEREOF” (Kumquat Biosciences Inc., priority 2022, published 2023).
pIC50: −log10 of the molar value. Where two headings read alike, the source gives them in different places.

Key:
[1] = target: SOS1 (Homo sapiens (Human), UniProt Q07889); assay: Ras-SOS interaction assay (HTRF), K-Ras G13D utilized; format: binding; conditions: K-Ras G13D
[2] = tested on: NCI-H1975 (ATCC CRL-5908) cell line comprising an EGFR T790M L858R double mutation; assay: EGFR-SOS cellular inhibition assay (CellTiter-Glo cell proliferation); format: cell-based; conditions: Homo sapiens
Protocol: A CellTiter-Glo (CTG) luminescent based assay (Promega) is used to assess growth of the cells, as a measurement of the ability of the compounds herein to inhibit EGFR signaling in the cells. […] The day after plating, cells are treated with a dilution series (e.g., a 9 point 3-fold dilution series) of the compounds herein (e.g., approximately 125 μL final volume per well).

[3] = 120 h, NCI-H1975 cell proliferation, approximately 5 days, read-out: H1975 IC50
[4] = read-out: IC50 value against SOS1
[5] = NCI-H1975, EGFR T790M L858R double mutation, read-out: IC50 in inhibiting growth of NCI-H1975 cell line

Sequence of SOS1 (Q07889 564-1049): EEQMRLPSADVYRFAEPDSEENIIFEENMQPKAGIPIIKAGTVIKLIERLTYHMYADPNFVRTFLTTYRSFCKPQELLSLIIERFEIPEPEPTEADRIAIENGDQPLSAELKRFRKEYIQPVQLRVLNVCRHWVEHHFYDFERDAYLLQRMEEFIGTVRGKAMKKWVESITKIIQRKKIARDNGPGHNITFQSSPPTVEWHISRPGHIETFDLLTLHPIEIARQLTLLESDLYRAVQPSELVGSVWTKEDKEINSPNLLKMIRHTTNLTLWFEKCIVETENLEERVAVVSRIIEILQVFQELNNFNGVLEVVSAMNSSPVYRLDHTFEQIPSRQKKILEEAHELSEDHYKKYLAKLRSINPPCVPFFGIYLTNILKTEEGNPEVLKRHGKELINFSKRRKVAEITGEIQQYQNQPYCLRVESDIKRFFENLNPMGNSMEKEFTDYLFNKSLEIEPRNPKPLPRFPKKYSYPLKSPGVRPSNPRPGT

Structure (SMILES)	pIC50 ([1]; read-out: SOS1 IC50)	pIC50 [2, 3]	pIC50 [1, 4]	pIC50 [2, 5]
C[C@H]1Nc2ncnc3c2cc(C2(C#N)CCS(=O)(=O)CC2)c(=O)n3CCCCCCCN2CCC(CC2)C(F)(F)c2cccc1c2 [Compound 116, 4-((4R)-2,2-difluoro-4-methyl-6^7-oxo-6^7,6^8-dihydro-5-aza-6(4,8)-pyrido[2,3-d]pyrimidina-1(4,1)-piperidina-3(1,3)-benzenacyclotridecaphane-6^6-yl)tetrahydro-2H-thiopyran-4-carbonitrile 1,1-dioxide]	> 7.00	> 6.00	–	–
C[C@H]1Nc2ncnc3c2cc(N2CCN(C)CC2)c(=O)n3CCCCCCCN2CCC(CC2)C(F)(F)c2cccc1c2F [Compound 57, (4R)-3^2,2,2-trifluoro-4-methyl-6^6-(4-methylpiperazin-1-yl)-6^7,6^8-dihydro-5-aza-6(4,8)-pyrido[2,3-d]pyrimidina-1(4,1)-piperidina-3(1,3)-benzenacyclotridecaphan-6^7-one]	> 7.00	> 6.00	–	–
C[C@H]1Nc2ncnc3c2cc(C2(C#N)CC2)c(=O)n3CCCNC(=O)CCN2CCC(CC2)C(F)(F)c2cccc1c2 [Compound 144, 1-((4R)-2,2-difluoro-4-methyl-6^7,11-dioxo-6^7,6^8-dihydro-5,10-diaza-6(4,8)-pyrido[2,3-d]pyrimidina-1(4,1)-piperidina-3(1,3)-benzenacyclotridecaphane-6^6-yl)cyclopropane-1-carbonitrile]	> 7.00	> 6.00	–	–
C[C@H]1Nc2ncnc3c2cc(N2CCS(=O)(=O)CC2)c(=O)n3CCCOCCCCN2CCC(CC2)C(F)(F)c2cccc1c2 [Compound 186, (4R)-6^6-(1,1-dioxidothiomorpholino)-2,2-difluoro-4-methyl-6^7,6^8-dihydro-10-oxa-5-aza-6(4,8)-pyrido[2,3-d]pyrimidina-1(4,1)-piperidina-3(1,3)-benzenacyclotetradecaphan-6^7-one]	> 7.00	> 6.00	–	–
C[C@H]1Nc2ncnc3c2cc(C2(C#N)CCS(=O)(=O)CC2)c(=O)n3CCCOCCCN2CCC(CC2)CC(F)(F)c2cccc1c2 [Compound 189, 4-((3R)-5,5-difluoro-3-methyl-1^7-oxo-1^7,1^8-dihydro-11-oxa-2-aza-1(4,8)-pyrido[2,3-d]pyrimidina-7(4,1)-piperidina-4(1,3)-benzenacyclotetradecaphane-1^6-yl)tetrahydro-2H-thiopyran-4-carbonitrile 1,1-dioxide]	> 7.00	> 6.00	–	–
C[C@H]1Nc2ncnc3c2cc(N2CCS(=O)(=O)CC2)c(=O)n3CCCCCN2CCC(CC2)CCC(F)(F)c2cccc1c2 [Compound 181, (3R)-1^6-(1,1-dioxidothiomorpholino)-5,5-difluoro-3-methyl-1^7,1^8-dihydro-2-aza-1(4,8)-pyrido[2,3-d]pyrimidina-8(4,1)-piperidina-4(1,3)-benzenacyclotridecaphan-1^7-one]	> 7.00	> 6.00	–	–
C[C@H]1Nc2ncnc3c2cc(C2(C#N)CCS(=O)(=O)CC2)c(=O)n3CCCCCCN2CC(CCC(F)(F)c3cccc1c3)C2 [Compound 213, 4-((3R)-5,5-difluoro-3-methyl-1^7-oxo-1^7,1^8-dihydro-2-aza-1(4,8)-pyrido[2,3-d]pyrimidina-8(3,1)-azetidina-4(1,3)-benzenacyclotetradecaphane-1^6-yl)tetrahydro-2H-thiopyran-4-carbonitrile 1,1-dioxide]	> 7.00	> 6.00	> 7.30	> 6.30
C[C@H]1Nc2ncnc3c2cc(C2(C#N)CCS(=O)(=O)CC2)c(=O)n3CCCOCCCCN2CCC(CC2)C(F)(F)c2cccc1c2 [Compound 127, 4-((4R)-2,2-difluoro-4-methyl-6^7-oxo-6^7,6^8-dihydro-10-oxa-5-aza-6(4,8)-pyrido[2,3-d]pyrimidina-1(4,1)-piperidina-3(1,3)-benzenacyclotetradecaphane-6^6-yl)tetrahydro-2H-thiopyran-4-carbonitrile 1,1-dioxide]	> 7.00	> 6.00	–	–
C[C@H]1Nc2ncnc3c2cc(C2(C#N)CC2)c(=O)n3CCCCCCCN2CCC(CC2(C)C)C(F)(F)c2cccc1c2 (stereo partly drawn) [Compound 43, 1-((4R)-2,2-difluoro-1^2,1^2,4-trimethyl-6^7-oxo-6^7,6^8-dihydro-5-aza-6(4,8)-pyrido[2,3-d]pyrimidina-1(4,1)-piperidina-3(1,3)-benzenacyclotridecaphane-6^6-yl)cyclopropane-1-carbonitrile]	> 7.00	> 6.00	–	–
CC(C)N1CCN(c2cc3c4ncnc3n(c2=O)CCCOCCCCN2CCC(CC2)C(F)(F)c2cccc(c2)[C@@H](C)N4)CC1 [Compound 190, (4R)-2,2-difluoro-6^6-(4-isopropylpiperazin-1-yl)-4-methyl-6^7,6^8-dihydro-10-oxa-5-aza-6(4,8)-pyrido[2,3-d]pyrimidina-1(4,1)-piperidina-3(1,3)-benzenacyclotetradecaphan-6^7-one]	> 7.00	> 6.00	–	–
CC(C)N1CCN(c2cc3c4ncnc3n(c2=O)CC(=O)NCCCCN2CCC(CC2)C(F)(F)c2cccc(c2)[C@@H](C)N4)CC1 [Compound 53, (4R)-2,2-difluoro-6^6-(4-isopropylpiperazin-1-yl)-4-methyl-6^7,6^8-dihydro-5,9-diaza-6(4,8)-pyrido[2,3-d]pyrimidina-1(4,1)-piperidina-3(1,3)-benzenacyclotridecaphane-6^7,8-dione]	> 7.00	> 6.00	–	–
Cc1nnc2c3cc(N4CCOCC4)nc(c13)OCCCCCCN1CCC(CC1)C(F)(F)c1cccc(c1)[C@@H](C)N2 [Compound 141, (R)-2,2-difluoro-6^4,4-dimethyl-6^7-morpholino-7-oxa-5-aza-6(1,5)-pyrido[3,4-d]pyridazina-1(4,1)-piperidina-3(1,3)-benzenacyclotridecaphane]	> 7.00	> 6.00	–	–
C/C1=C\CCCCn2c(=O)c(C3CCS(=O)(=O)CC3)cc3c(ncnc32)N[C@H](C)c2cccc(c2)C(F)(F)C2CCN(CC2)C1 [Compound 80, (4R,E)-6^6-(1,1-dioxidotetrahydro-2H-thiopyran-4-yl)-2,2-difluoro-4,12-dimethyl-6^7,6^8-dihydro-5-aza-6(4,8)-pyrido[2,3-d]pyrimidina-1(4,1)-piperidina-3(1,3)-benzenacyclotridecaphan-11-en-6^7-one]	> 7.00	> 6.00	–	–
C[C@H]1Nc2ncnc3c2cc(C2CCS(=O)(=O)CC2)c(=O)n3CCCCCCCN2CC(C2)CC(F)(F)c2cccc1c2F [Compound 212, (3R)-1^6-(1,1-dioxidotetrahydro-2H-thiopyran-4-yl)-4^2,5,5-trifluoro-3-methyl-1^7,1^8-dihydro-2-aza-1(4,8)-pyrido[2,3-d]pyrimidina-7(3,1)-azetidina-4(1,3)-benzenacyclotetradecaphan-1^7-one]	> 7.00	> 6.00	> 7.30	> 6.30
C[C@H]1Nc2ncnc3c2cc(N2CCS(=O)(=O)CC2)c(=O)n3CCCCCN2CCC(CC2)CCC(F)(F)c2cccc1c2F [Compound 119, (3R)-1^6-(1,1-dioxidothiomorpholino)-4^2,5,5-trifluoro-3-methyl-1^7,1^8-dihydro-2-aza-1(4,8)-pyrido[2,3-d]pyrimidina-8(4,1)-piperidina-4(1,3)-benzenacyclotridecaphan-1^7-one]	> 7.00	> 6.00	–	–
